# Source: patent US20070098864A1, “PROCESS FOR PREPARING FORMULATIONS OF […] […] SPRAY FREEZING DRYING” (priority 2004, published 2007)
# Tests used:
# [1] = Modulated differential scanning calorimetry (glass transition temperature) of THC/inulin powders; format: physicochemical; settings: MDSC
# Experimental: Thermal behaviour of the spray freeze dried powders was determined by modulated differential scanning calorimetry (MDSC) on a differential scanning calorimeter (DSC2920, TA Instruments, Gent, Belgium). A modulation amplitude of 0.318° C., a modulation period of 60 seconds and a heating rate of 2° C./min was used. Calibration was performed with indium. Standard aluminium sample pans were used. During measurement, the sample cell was purged with nitrogen at a flow rate of 35 mL/min. Before scanning, the sample pan was heated at 2° C./min to 50° C. to remove all residual moisture. Subsequently, the sample was cooled to −20° C. and then scanned up to 180° C. The glass transition temperature (Tg) was defined as the inflection point of the change in specific heat in the reversing signal.
# [2] = Stability study of THC (HPLC) in climate chambers
# Experimental: To investigate the degradation of pure THC, 20 mL glass vials were charged with 70 μL of a solution of THC in methanol containing 2.52 mg THC. They were left overnight under a flow of dry nitrogen to allow for methanol evaporation. The resulting thin layers of THC spread over the bottom of the vials (4.5 cm^2). Spray freeze dried and freeze dried material containing THC were weighed in vials. All samples were stored in climate chambers of 20° C./45% RH and 60° C./8% RH. Samples (n=3) were taken at different time intervals and analysed by means of HPLC using the method described by van Drooge et al. (Eur. J. Pharm. Sci. 2004, 21, 511-518). Briefly, samples were extracted with methanol. A Waters 717+ autosampler was used to inject 50 μL of supernatant on a precolumn (HPLC precolum inserts, μBondapak C18 Guardpak) followed by a Chrompack Nucleosil 100 C18 column (4.6×250 mm). Absorbance at 214 nm was measured with a UV detector (Shimadzu SPD-M6A). Chromatograms and peak areas were analysed with an integrator (waters 741 Data Module) and Kromasystem 2000 software. The flow rate of the eluens (methanol/water 92/8 (v/v) plus 5 drops concentrated sulphuric acid per litre eluens) was set at 1.0 mL/min. […] In every series of HPLC-runs some calibration samples were included.
compound,measurement,setting,value
"CCCCCc1cc(O)c2c(c1)OC(C)(C)[C@@H]1CCC(C)=C[C@@H]21 [pure THC, Δ^9-tetrahydrocannabinol]",Tg,[1]; pure substance,9.3 °C
same,1st Tg (° C.),"[1]; spray freeze dried, Tg of THC",9.3 ± 1.0 °C
same,time to complete degradation,[2]; exposed to air of 20° C./45% RH,≤ 50 days
same,time to complete degradation,[2]; storage at 60° C./8% RH,≤ 15 days
